Values quoted from earlier work in publication PMC11476552, “Synthesis and Preliminary Studies for In Vitro Biological Activity of Two New Water-Soluble Bis(thio)carbohydrazones and Their Copper(II) and Zinc(II) Complexes” (International Journal of Molecular Sciences, 2024).

Set-up: method as in PMID 29334758
Conditions: cited from earlier work

SMILES	cytotoxic activity (in words)
S=C(N/N=C1\CCCc2cccnc21)N1CCN(c2ccccn2)CC1 [COTI-2]	nanomolar cytotoxic activity
CN(C(=S)NN=C(c1ccccn1)c1ccccn1)C1CCCCC1 [DpC, di-2-pyridylketone 4-cyclohexyl-4-methyl-3-thiosemicarbazone]	nanomolar cytotoxic activity
